Results published in patent US8507459B2, “Use of adenosine aspartate for the preparation of pharmaceutical products for the treatment of liver cancer” (Universidad Nacional Autonnoma de Mexico, priority 2007, dated 2013).

How the values were obtained:
[1] = tested on: cirrhosis of the liver; conditions: cited from earlier work
[2] = tested on: alpha-fetoprotein; conditions: cirrhotic patients with slightly high levels; cited from earlier work
[3] = tested on: preneoplastic lesions in rat liver; test: Resistant hepatocyte model, adenosine aspartate given after cancer induction, sacrifice at month 12 (Example 1); type: in vivo
Method: (§1) For the experimental phase in its first stage, male rats of the Fisher 344 strain were used, having 180 to 200 grams body weight, which were bred and kept in an Animal Breeding and Experimentation Unit of the Advanced Research and Studies Center, in a controlled environment with 12-hour cycles of light/darkness at a temperature of 23° C., in hygiene conditions and with free access to food and water. The preneoplastic lesion outgrowth in the liver was induced to the rats by using the resistant hepatocyte model (Semple-Roberts E, Hayes M A, Armstrong D, Becker R A, Racz W J, and Farber E. (1987) Alternative methods of selecting rat hepatocellular nodules resistant to 2-acetylaminofluorence. Int, J. Cancer. 40:643-6451) modified by our research group (Carrasc-Legleu C E, Marquez-Rosado L, Fattel-Fazenda S, Arce-PopocaE, Pérez-Carreón JI, VIIIa-Treviño S. (2004) Chemoprotective effect of caffeic acid phenethyl ester on promotion in a medium-term rat hepatocarcinogenesis assay. Int J. Cancer. 108:488-92).
As can be observed in this figure, this second experiment (IFC) consisted first in administering by intraperitoneal route, one single dose of 200 mg/kg of weight of DEN as carcinogen primer. Additionally, on days 7, 8, and 9 after the beginning, a dose of 20 mg/kg of weight of 2AAF was administered as carcinogen promoter, and on day 10 after the beginning, rats underwent an HP. […]

[4] = tested on: preneoplastic lesions in rat liver; test: Resistant hepatocyte model, 25 days, histochemical GGT staining of liver sections (Example 2); type: in vivo
Method: as §1
On days 7, 8, and 9 after the beginning, a dose of 20 mg/kg of weight of 2-acetylaminofluorene (hereinafter called as 2AAF) was administered as carcinogen promoter, and on day 10 after the beginning, rats underwent a partial hepatectomy (HP) of 70% of hepatic mass (the administration of these products along with the hepatectomy is taken into consideration as the entire treatment for this experiment). Lastly, the rats were sacrificed at day 25.
In order to show the beneficial effect of adenosine aspartate in preneoplastic lesions, 6 different experimental groups were designed, as shown in FIG. 2.
The first group (TC), having 8 rats, was administered with the entire treatment; this group was used as positive control of the preneoplastic lesion outgrowth. The second group (IFC-1), having 8 animals, was administered with a pharmacologically effective dose of adenosine aspartate, which for this case, was 50 mg/kg of body weight dissolved in a physiological saline solution, pH 7.4 with 0.5% carboxymethyl-cellulose, replacing DEN carcinogen primer. The third group (IFC-P), having 8 animals, was administered with a pharmacologically effective dose of adenosine aspartate, which for this case, was 50 mg/kg of body weight dissolved in a physiological saline solution, pH 7.4 with 0.5% carboxymethyl-cellulose, replacing 2-AAF carcinogen promoter. In the fourth group (IFC-IP), with 7 animals, both the DEN carcinogen primer and the 2AAF carcinogen promoter were substituted by adenosine aspartate in pharmacologically effective doses, which in this case, was 50 mg/kg of body weight dissolved in a physiological saline solution, pH 7.4 with 0.5% carboxymethyl-cellulose. The fifth group (C-2AAF), having 6 animals, was administered with 2AAF only, being used as control of the administration of adenosine aspartate at the beginning of the second group (IFC-I. Finally, the sixth group(C-DEN), having 7 animals, which received DEN product only, was used as control of the administration of adenosine aspartate in the promotion of group 3 (IFC-P).
When ending the cycle, all groups underwent a partial hepatectomy. […] 17(8):517-526.) Briefly, sections were set in absolute ethanol for 10 min at −20° C.; subsequently, they were treated with a solution that contains 125 μg/ml of γ-glutamil-4-methoxi-2-naphthylamide (GMNA), 0.5 mg/ml of glycyl-glycine and 0.5 mg/ml of Fast Blue in 100 mM of Tris base and they were incubated for 30 minutes at room temperature; finally, they were washed with saline solution, the precipitated were set with 100 mM cupric sulfate solution. All reagents acquired from Sigma Chemical Co. in St Louis, Mo., USA. The enzyme activity was expressed in areas stained with dark red color. […]

[5] = group IFC-I: adenosine aspartate 50 mg/kg as primer replacing DEN, day 25
[6] = group IFC-IP: adenosine aspartate 50 mg/kg as primer and promoter replacing DEN and 2AAF, day 25
[7] = group IFC-P: adenosine aspartate 50 mg/kg as promoter replacing 2AAF, day 25

In the case of adenosine aspartate, the accumulation of collagen [1] is listed as “reducing the accumulation of collagen”, the “serum levels of alpha-fetoprotein” value [2] is listed as “reduces serum levels of alpha-fetoprotein” and the “effect on already installed preneoplastic lesions” value ([3]; 60 mg/kg every 3 days from month 8 until month 12) is listed as “reversal effect”. The “alterations of cancer or preneoplastic lesions” value ([3]; administered after a product used to induce cancer, 60 mg/kg every 3 days from month 8) was “no suggestive alterations of cancer or preneoplastic lesions were present”, the “effect over the preneoplastic lesion outgrowth compared with respective control groups” value ([4]; as primer (IFC-I) or as promoter (IFC-P), vs C-2AAF and C-DEN) was “no effect” and the “average of positive GGT foci/cm^2 regarding the control group with the entire treatment (TC = 100%)” value [4, 5] was 1.3%. The “positive GGT area regarding the control group with the entire treatment (TC = 100%)” value [4, 5] was 0.4%, the “positive GGT arborescences in liver” value ([4]; group IFC-I: as primer) was “some livers presented positive GGT arborescences” and the “number of positive GGT foci/cm^2 regarding the control group with the entire treatment (TC = 100%)” value [4, 6] was 0.2%. For the same substance, the “positive GGT area regarding the control group with the entire treatment (TC = 100%)” value [4, 6] was 0.08%, the “development of preneoplastic lesions” value ([4]; group IFC-IP: as primer and as promoter) was “no preneoplastic lesions were developed” and the “average of positive GGT foci/cm^2 regarding the control group with the entire treatment (TC = 100%)” value [4, 7] was 7.1%. For the same substance, the “positive GGT area regarding the control group with the entire treatment (TC = 100%)” value [4, 7] was 4.6%, the “positive GGT arborescences and preneoplastic lesions in liver” value ([4]; group IFC-P: as promoter) was “positive GGT arborescences were not observed but small preneoplastic lesions were observed” and the “alterations (number and area) compared with control groups C-2AAF and C-DEN” value ([4]; groups IFC-I and IFC-P) was “lower in number as well as in area”.
